PubChem BioAssay (NCI)
Several values for one entry are separate records, joined by “and”; a condition that tells them apart may be missing. Equal entries are not always repeated.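 Test compounds were applied to cells in 96-well plates for 48 hours at 5 doses. At the GI50, growth is halved. TGI: total growth inhibition.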

Assays:
Experiment in all cases: NCI anticancer screen, dose series, 48 h
[1] = tested on: MDA-N
[2] = tested on: HOP-18 NSCLC
[3] = tested on: M19-MEL melanoma
[4] = tested on: DLD-1 colon
[5] = tested on: XF 498 CNS
[6] = tested on: SNB-78 CNS
[7] = tested on: KM20L2 colon
[8] = tested on: DMS 114 small cell lung
[9] = tested on: RXF-631 renal

| Structure (SMILES) | TGI [1] | TGI [2] | TGI [3] | TGI [4] | TGI [5] | TGI [6] | TGI [7] | TGI [8] | TGI [9] | also measured |
| --- | --- | --- | --- | --- | --- | --- | --- | --- | --- | --- |
| Cc1[nH]n(-c2ccc(S(=O)(=O)O)cc2)c(=O)c1N=Nc1ccccc1 | > 100 µM |  |  |  |  |  |  |  |  |  |
| CNc1cccnc1/C=N/NC(N)=S | > 10 µM |  |  |  |  |  |  |  |  |  |
| Nc1nc(Cl)c(N=Nc2ccc(Cl)cc2)c(NCC2(CO)CC(OCc3ccccc3)C2)n1 (configuration not stated) | > 100 µM |  |  |  |  |  |  |  |  | GI50 [1]: 29.5 µM and > 100 µM and 11.8 µM |
| Cn1cnc([N+](=O)[O-])c1SC1=NCCS1 |  | > 100 µM | > 100 µM | > 100 µM | > 100 µM | > 100 µM |  |  |  |  |
| CC(C)=CC(O)C/C(C)=C/CC/C(C)=C/CCC1(C)C(CCCO)/C(=C(/C)C=O)CCC1(C)O (configuration not stated) | 52.4 µM |  |  |  |  |  |  |  |  |  |
| O=C1Nc2ccccc2/C1=C/c1ccccc1 | 40.7 µM |  |  |  |  |  |  |  |  |  |
| O=C1CCCC(=O)C1=C(O)CCCCCCCCCCc1ccccc1 |  | > 100 µM | 97.9 µM | > 100 µM | > 100 µM | > 100 µM | > 100 µM | 53.4 µM |  |  |
| C/C1=C\CC[C@@]2(C)O[C@@H]2C[C@@H]2[C@H](C/C(C)=C/CC1)OC(=O)C21CCN=N1 (some centres not stated) | > 100 µM |  |  |  |  |  |  |  |  | GI50 [1]: > 100 µM |
| O=C1Cc2ccccc2N1c1c(Cl)cccc1Cl |  | > 100 µM | > 100 µM | > 100 µM | 82.3 µM | > 100 µM | > 100 µM | 95.4 µM | > 100 µM |  |
| C#C[C@@]1(O)CCCC2=CC(=O)C[C@]21C |  | > 100 µM | > 100 µM | > 100 µM | > 100 µM |  |  | > 100 µM |  |  |
| Oc1ccc2c3c1OC1C(=NN=C4CCC5(O)C6Cc7ccc(O)c8c7C5(CCN6CC5CC5)C4O8)CCC4(O)C(C2)N(CC2CC2)CCC314 (configuration not stated) |  | > 100 µM | 40.9 µM | > 100 µM | 34.3 µM | > 100 µM | 41.7 µM | 44.6 µM |  |  |
| Oc1ccc2ccccc2c1C(c1ccc(Cl)cc1)c1c(O)ccc2ccccc12 | 12.2 µM |  |  |  |  |  |  |  |  |  |
| S=P1(c2ccccc2)Nc2ccc(Cl)cc2N1 (configuration not stated) |  | > 100 µM | 67.2 µM | > 100 µM | > 100 µM | > 100 µM | > 100 µM | > 100 µM | > 100 µM |  |
| COc1ccc(NC(=O)COC(=O)c2cccc3c(=O)c4ccccc4[nH]c23)cc1 |  | 93.8 µM | 39 µM | 31.9 µM | 36.5 µM | 64.2 µM | 51.7 µM | 37.8 µM |  |  |
| N#CCCN(CCC#N)c1ccc(/C=N\c2nc(-c3ccccc3)cs2)cc1 |  |  | > 100 µM | > 100 µM | > 100 µM | > 100 µM | > 100 µM | > 100 µM | > 100 µM |  |
| CCCCCCCCCCCCCC(=O)OC(/C=C/C(C)C)C(O)C(O)C(OC)C(=O)NC1CCCCNC1=O (configuration not stated) |  | 10.5 µM |  | 5.07 µM | 5.47 µM | 9.18 µM | 4.89 µM | 3.85 µM |  |  |

| Structure (SMILES) | TGI [1] | TGI [2] | TGI [3] | TGI [4] | TGI [5] | TGI [6] | TGI [7] | TGI [8] | TGI [9] | also measured |
| --- | --- | --- | --- | --- | --- | --- | --- | --- | --- | --- |
| Cn1cnc([N+](=O)[O-])c1Sc1nc2cccnc2s1 |  |  | 29.6 µM | 26.7 µM | 39.2 µM | > 100 µM | 31.7 µM | 28.5 µM | 28.4 µM |  |
| CCCC(=O)Nc1cc([N+](=O)[O-])c([N+](=O)[O-])cc1OC | 30.6 µM |  |  |  |  |  |  |  |  |  |
| CC1C=CC(C)C2(O)C(=O)NC(O)C12 (configuration not stated) |  | > 100 µM | > 100 µM | > 100 µM |  | > 100 µM | > 100 µM | > 100 µM | > 100 µM |  |
| N#CCC12CC=CCC1=C(O)C(=O)c1ccc(O)cc12 (configuration not stated) | > 100 µM |  |  |  |  |  |  |  |  |  |
| Cn1c(=O)c2[nH]c(C3CC(=O)CC(c4nc5c([nH]4)c(=O)n(C)c(=O)n5C)N3)nc2n(C)c1=O (configuration not stated) | > 100 µM |  |  |  |  |  |  |  |  |  |
| Cc1ccc(-c2nc3c(C(=O)NCCN(C)C)cccc3[nH]2)cc1 |  | 51.5 µM | 29.7 µM | 73.2 µM |  | 83.3 µM |  | 26.6 µM | 31 µM |  |
| N#CCc1ccc(/C(C#N)=C2/OC(=N)C(c3ccc(CC#N)cc3)C2=O)cc1 (configuration not stated) |  |  | > 100 µM | > 100 µM | > 100 µM | > 100 µM | > 100 µM | > 100 µM | > 100 µM |  |
| O=C(Nc1ccc([N+](=O)[O-])cc1C(=O)O)c1ccc([N+](=O)[O-])cc1 |  |  | > 100 µM | > 100 µM | > 100 µM |  | 64.9 µM | 50.7 µM | > 100 µM |  |
| O=C(CC/C(CC(=O)c1ccc(Cl)cc1)=N/O)Nc1ccc(Cl)c(Cl)c1 |  | > 100 µM | > 100 µM | > 100 µM | > 100 µM | > 100 µM | > 100 µM | > 100 µM | > 100 µM |  |
| CCOC(=O)N[C@H]1CCc2cc(O)c(OC)c(OC)c2-c2ccc(SC)c(=O)cc21 |  | > 100 µM | > 100 µM | > 100 µM | > 44.4 µM | > 8 µM | 0.0301 µM | 0.473 µM | 2.91 µM |  |
| Cc1cc(Cl)ccc1NC(=O)CC1SC(N)=NC1=O (configuration not stated) |  | > 100 µM | > 100 µM | > 100 µM |  |  | > 100 µM | > 100 µM | > 100 µM |  |
| CCC[CH2][Sn]1([CH2]CCC)[O]C(=O)c2cccc(OC)c2[O]1 |  | 1.95 µM | 1.23 µM | 0.986 µM | 0.28 µM | 0.959 µM | 2.68 µM | 0.624 µM |  | GI50 [2]: 0.687 µM; GI50 [7]: 1.33 µM; GI50 [3]: 0.222 µM; GI50 [8]: 0.196 µM; GI50 [4]: 0.244 µM; GI50 [5]: 0.131 µM; GI50 [6]: 0.093 µM |
| Cc1ccc(NC(=O)COC(=O)c2cccc3c(=O)c4ccccc4[nH]c23)cc1 |  | > 100 µM | > 100 µM | > 100 µM | 78.3 µM | > 100 µM | > 100 µM | > 100 µM | > 100 µM |  |
| O=C1C2C(C(=O)N1c1ccccc1)C1(c3ccccc3)OC2(c2ccccc2)c2ccccc21 (configuration not stated) |  | > 100 µM | > 100 µM | > 100 µM |  |  | > 100 µM | > 100 µM | > 100 µM |  |
| C/C=C(\CCC1NCCc2c1[nH]c1ccccc21)[Si](C)(C)C (configuration not stated) | 3.74 µM | 50.8 µM and 19.1 µM | 12.9 µM and 3.89 µM | 14.1 µM and 11.3 µM | 6.99 µM and 2.75 µM | 24.5 µM and 11.7 µM | 11.7 µM and 4.12 µM | 10.8 µM and 3.51 µM | 17.1 µM and 13.9 µM | GI50 [7]: 5.29 µM and 1.92 µM; GI50 [3]: 6.62 µM and 1.95 µM; GI50 [8]: 5.76 µM and 1.83 µM |
